≈ marks a conversion by molar mass, not a printed value. Values belong to the compound of their own block, whether it stands above or below them. Positions of bridges follow the written chain, without caps; N, C: chain ends. Non-standard residues stand in square brackets, D forms with d. Residues, ends and D or L forms follow the SMILES beside them. *: point of attachment. Palmitoyl = CCCCCCCCCCCCCCCC(=O)*; X3 = CC[C@H](C)CCCCC(=O)*; Dab = NCC[C@H](N)C(=O)O
Key:
[1] = tested on: A. baumannii; experiment: Antibiogram of ESKAPE pathogens; format: cell-based; conditions: column assigned by order in flattened table
Excerpt: (§1) Supplementary Table 1. Antibiogram of ESKAPE pathogens used in this study.
(§2) Bacteria susceptible to all (blue color) or intermediate/resistant to at least one (red color) of antibiotics per class following the EUCAST breakpoints. Black color is shown if the susceptibility to agents in that class is not assessed. Values are minimal inhibition concentrations (MIC) in µg/ml or for Chloramphenicol in diameter (mm). […]

[2] = tested on: E. coli; experiment: Antibiogram of ESKAPE pathogens; format: cell-based; conditions: column assigned by order in flattened table; for MIC: Escherichia coli
Excerpt: as §1, §2

[3] = tested on: ESKAPE pathogens; experiment: organism not typed; conditions: one strain of A. baumannii, P. aeruginosa or E. coli, not assignable
Excerpt: as §1, §2

[4] = tested on: K. pneumoniae; conditions: one K. pneumoniae strain, which one not assignable
Excerpt: as §1, §2

[5] = tested on: several pathogenic bacteria; experiment: Radial diffusion assay, all tested strains; format: cell-based
Method: (§3) Antimicrobial activity was analyzed by radial diffusion assay. Log-phase bacteria were cultivated for up to 18 h in TSB (TSB, Becton Dickinson, USA), washed and diluted to 4 × 10^6 CFU in 10 ml agar. Bacteria were incubated in 10 ml of 10 mM sodium phosphate, pH 7.4, containing 0.3 mg/ml of TSB powder and 1% (w/v) low EEO-agarose (AppliChem). 1 µg of each lipopeptide was pipetted into punched wells in a final volume of 4 µl and diffused into the gel for 3 h at 37 °C. After that, a nutrient-rich gel with 6% TSB (w/v) and 1% agarose in 10 mM sodium phosphate buffer was poured on top of the first gel and incubated for up to 24 h at 37 °C. Then the diameter of inhibition zones was measured.

[6] = tested on: multidrug resistant bacteria belonging to the ESKAPE pathogen panel; format: cell-based; conditions: broth microdilution, ESKAPE panel
Method: Bactericidal activity was assessed by broth microdilution assay. […] After incubation, 100 µl of 6% TSB (w/v) were added and absorbance was measured at 600 nm (Tecan, Switzerland) and monitored for 18 h. Afterward, 100 µl per well were plated on LB agar to determine the numbers of viable bacteria microbiologically. Bactericidal activity is expressed as the LC99.9, the lowest concentration that killed ≥99.9 % of bacteria.

[7] = tested on: S. Typhimurium; format: cell-based; conditions: radial diffusion assay
Method: as §3

[8] = tested on: A. baumannii DSM30007 4-MRGN
Method: Bactericidal activity was assessed by broth microdilution assay. Log-phase bacteria were collected by centrifugation (2500 rpm, 10 min, 4 °C), washed twice with 10 mM sodium phosphate buffer containing 1% (w/v) TSB and the optical density at 600 nm was adjusted to 0.1. Approximately 5 × 10^5 CFU/ml bacteria were incubated with serial peptide concentrations (1.17–150 µM) in a final volume of 100 µl in 10 mM sodium phosphate buffer containing 1% (w/v) TSB for 2 h at 37 °C. After incubation, 100 µl of 6% TSB (w/v) were added and absorbance was measured at 600 nm (Tecan, Switzerland) and monitored for 18 h. Afterward, 100 µl per well were plated on LB agar to determine the numbers of viable bacteria microbiologically. Bactericidal activity is expressed as the LC99.9, the lowest concentration that killed ≥99.9 % of bacteria.

MIC (antibiogram) ([1]; strain DSM30007): ≥ 64 µg/mL
MIC (antibiogram) ([2]; strain DSM682): ≥ 64 µg/mL
MIC (antibiogram) ([2]; strain DSM8695): ≤ 1 µg/mL
SMILES: CC(C)(O/N=C(\C(=O)N[C@@H]1C(=O)N2C(C(=O)[O-])=C(C[n+]3ccccc3)CS[C@H]12)c1csc(N)n1)C(=O)O [Ceftazidim]

MIC ([1]; Acinetobacter baumannii, strain ECII): 4 µg/mL (≈ 6.83 µM)
MIC ([2]; strain DSM682): ≤ 0.5 µg/mL
MIC ([2]; strain DSM8695): ≤ 0.5 µg/mL
SMILES: CN(C)c1cc(NC(=O)CNC(C)(C)C)c(O)c2c1C[C@H]1C[C@H]3[C@H](N(C)C)C(O)=C(C(N)=O)C(=O)[C@@]3(O)C(O)=C1C2=O [Tigecycline]

SMILES: CC[C@H](C)CCCCC(=O)N[C@@H](CCN)C(=O)N[C@H](C(=O)N[C@@H](CCN)C(=O)N[C@H]1CCNC(=O)[C@H]([C@@H](C)O)NC(=O)[C@H](CCN)NC(=O)[C@H](CCN)NC(=O)[C@H](CC(C)C)NC(=O)[C@@H](CC(C)C)NC(=O)[C@H](CCN)NC1=O)[C@@H](C)O [Colistin] (X3-[Dab]T[Dab][Dab][Dab][dL]L[Dab][Dab]T; lactam 4-C (inferred); N-terminus assumed)
MIC (antibiogram) [3]: 1 µg/mL (≈ 0.855 µM)
MIC (antibiogram) [4]: 0.25 µg/mL (≈ 0.214 µM)

SMILES: CCCCCCCCCCCCCCCC(=O)N[C@@H](CCCNC(=N)N)C(=O)NCC(=O)N[C@@H](CCCCN)C(=O)N[C@@H](C)C(=O)N[C@@H](CCCCN)C(=O)N[C@@H](CS)C(=O)N[C@@H](CS)C(=O)N[C@@H](CCCCN)C(=O)O [Pam-2] (Palmitoyl-RGKAKCCK-OH; C-terminus assumed)
antimicrobial activity (in words) [5]: potent inhibition
bactericidal activity (in words) [6]: highly effective
inhibition of S. Typhimurium growth (in words) [7]: consistently inhibited
growth inhibition of colistin- and tigecycline-resistant isolate (in words) [8]: inhibited the growth

From publication PMC7794397, “Curbing gastrointestinal infections by defensin fragment modifications without harming commensal microbiota” (Communications Biology, 2021)
